Converted amounts (≈) assume the structure as drawn. “And” between values parts separate entries of the source, which are not always exact repeats. Equal entries are not always repeated. Values belong to the molecule of their own block, whether it stands above or below them.
Tests used:
Test in all cases: ≥ marks a high value that may be exact or a test limit, other limits are often not marked, values filed in µg/mL are converted to µM
[1] = test system: Escherichia coli ATCC 25922
Escherichia coli D21 = test system: Escherichia coli D21
[2] = test system: Staphylococcus aureus ATCC 6538
Escherichia coli W160-37 = test system: Escherichia coli W160-37
Escherichia coli ML-35p = test system: Escherichia coli ML-35p
[3] = test system: Staphylococcus aureus ATCC 700699
Listeria innocua = test system: Listeria innocua
Staphylococcus aureus = test system: Staphylococcus aureus
Leuconostoc lactis = test system: Leuconostoc lactis
Bacillus cereus = test system: Bacillus cereus
[4] = test system: Staphylococcus epidermidis
Streptococcus uberis = test system: Streptococcus uberis
Escherichia coli = test system: Escherichia coli
Micrococcus luteus = test system: Micrococcus luteus
Pasteurella multocida = test system: Pasteurella multocida
[5] = test system: Batrachochytrium dendrobatidis
[6] = test system: Staphylococcus aureus ATCC 25923
[7] = test system: Candida albicans ATCC 200955
[8] = test system: Pseudomonas aeruginosa ATCC 27853
[9] = test system: Staphylococcus aureus ATCC 33591
[10] = test system: Enterococcus faecium ATCC 700221
[11] = test system: Staphylococcus aureus ATCC 33592
Escherichia coli MG1655 = test system: Escherichia coli MG1655
[12] = test system: Klebsiella pneumoniae ATCC 700603
[13] = test system: Staphylococcus aureus ATCC 29213
[14] = test system: Salmonella enterica subsp. enterica serovar Typhimurium ATCC 14028
[15] = test system: Klebsiella pneumoniae ATCC 10031
[16] = test system: Shigella dysenteriae ATCC 9752
[17] = test system: Staphylococcus aureus ATCC 6538P
[18] = test system: Staphylococcus epidermidis ATCC 12228
[19] = test system: Staphylococcus aureus TK784
[20] = test system: Micrococcus luteus ATCC 10240
[21] = test system: Bacillus subtilis ATCC 6633
Pseudomonas aeruginosa = test system: Pseudomonas aeruginosa

Structure (SMILES): CC(=O)NCC(=O)N[C@@H](Cc1ccccc1)C(=O)N[C@@H](CCCN=C(N)N)C(=O)N[C@@H](CCCCN)C(=O)N[C@@H](Cc1ccccc1)C(=O)N[C@@H](Cc1cnc[nH]1)C(=O)N[C@@H](CCCCN)C(=O)N[C@@H](Cc1ccccc1)C(=O)N[C@@H](Cc1c[nH]c2ccccc12)C(=O)N[C@@H](C)C(N)=O [GFRKFHKFWA]
- MIC (Escherichia coli ML-35p): ≥ 500 µM
- MIC [3]: ≥ 500 µM

Structure (SMILES): CC[C@H](C)[C@H](NC(=O)[C@H](CCCCN)NC(=O)[C@H](CCCCN)NC(=O)[C@H](CC(C)C)NC(=O)[C@H](CC(C)C)NC(=O)CN)C(=O)N[C@@H](CCCCN)C(=O)N[C@H](C(=O)N[C@@H](CC(C)C)C(=O)N[C@@H](CC(C)C)C(N)=O)[C@@H](C)O [GLLKKIKTLL]
- MIC [6]: 19.5 µM (≈ 22 µg/mL)
- MIC [7]: ≥ 56.8 µM
- MIC [8]: 56.8 µM (≈ 63.9 µg/mL)
- MIC [9]: ≥ 512 µM
- MIC [10]: ≥ 171 µM

Structure (SMILES): CC[C@H](C)[C@H](NC(=O)[C@H](Cc1c[nH]c2ccccc12)NC(=O)[C@H](CO)NC(=O)CNC(C)=O)C(=O)N[C@@H](CCCCN)C(=O)N[C@@H](CCCN=C(N)N)C(=O)N[C@@H](CC(C)C)C(=O)N[C@@H](CC(N)=O)C(=O)N[C@@H](CO)C(=O)N[C@@H](Cc1c[nH]c2ccccc12)C(=O)N[C@@H](CC(C)C)C(=O)N[C@@H](CCCN=C(N)N)C(=O)N[C@@H](CCCCN)C(N)=O [GSWIKRLNSWLRK]
- MIC [11]: ≥ 38.9 µM
- MIC (Escherichia coli MG1655): 4 µM and 8 µM

Structure (SMILES): CC(C)C[C@H](NC(=O)[C@H](Cc1c[nH]c2ccccc12)NC(=O)[C@H](CCCCN)NC(=O)[C@H](CCCCN)NC(=O)[C@H](CC(C)C)NC(=O)[C@H](Cc1c[nH]c2ccccc12)NC(=O)[C@H](CCCCN)NC(=O)[C@@H](N)CCCCN)C(=O)N[C@@H](CCCCN)C(N)=O [KKWLKKWLK]
- MIC [14]: > 63.6 µM
- MIC [8]: 63.6 µM (≈ 79.9 µg/mL)
- MIC [1]: 31.8 µM (≈ 40 µg/mL)
- MIC [15]: ≥ 63.6 µM
- MIC [16]: ≥ 63.6 µM
- MIC [17]: 31.8 µM (≈ 40 µg/mL)
- MIC [18]: > 63.6 µM
- MIC [19]: ≥ 63.6 µM
- MIC [20]: ≥ 63.6 µM
- MIC [21]: ≥ 63.6 µM

Structure (SMILES): CC(C)C[C@H](NC(=O)[C@H](Cc1c[nH]c2ccccc12)NC(=O)[C@H](CCCCN)NC(=O)[C@H](CCCCN)NC(=O)[C@H](CC(C)C)NC(=O)[C@H](Cc1c[nH]c2ccccc12)NC(=O)[C@@H](N)CCCCN)C(N)=O [KWLKKWL]
- MIC [14]: > 79.9 µM
- MIC [8]: > 79.9 µM
- MIC [1]: > 79.9 µM
- MIC [15]: ≥ 79.9 µM
- MIC [16]: ≥ 79.9 µM
- MIC [17]: ≥ 79.9 µM
- MIC [18]: > 79.9 µM
- MIC [19]: ≥ 79.9 µM
- MIC [20]: ≥ 79.9 µM
- MIC [21]: ≥ 79.9 µM

Structure (SMILES): CC[C@H](C)[C@H](NC(=O)[C@H](Cc1c[nH]c2ccccc12)NC(=O)[C@H](CCCCN)NC(=O)[C@H](CO)NC(=O)[C@H](CC(C)C)NC(=O)[C@H](Cc1ccccc1)NC(=O)[C@@H](NC(=O)[C@H](CCCCN)NC(=O)[C@H](CC(C)C)NC(=O)[C@H](CC(C)C)NC(=O)[C@H](CCCCN)NC(=O)[C@@H]1CCCN1)[C@@H](C)O)C(=O)NCC(=O)O [PKLLKTFLSKWIG]
- MIC (Staphylococcus aureus): 3.27 µM (≈ 5 µg/mL)
- MIC (Escherichia coli W160-37): 4.57 µM (≈ 7 µg/mL)
- MIC (Pseudomonas aeruginosa): 19.6 µM (≈ 30 µg/mL)

Other lines, results leading:

- MIC [1]: > 50 µM
- MIC (Escherichia coli D21): ≥ 50 µM
- MIC [2]: 35.4 µM (≈ 97.2 µg/mL)
Structure (SMILES): CC[C@H](C)[C@H](NC(=O)[C@H](CCCCN)NC(=O)[C@H](CCCN=C(N)N)NC(=O)[C@@H](NC(=O)[C@H](CC(C)C)NC(=O)[C@H](CCC(N)=O)NC(=O)[C@@H](NC(=O)[C@H](Cc1ccc(O)cc1)NC(=O)[C@H](CCC(N)=O)NC(=O)[C@@H]1CCCN1C(=O)[C@@H](NC(=O)[C@H](CC(C)C)NC(=O)[C@@H](NC(=O)[C@H](Cc1c[nH]c2ccccc12)NC(=O)[C@H](CC(C)C)NC(=O)[C@H](CO)NC(=O)[C@@H]1CCCN1C(=O)[C@H](Cc1cnc[nH]1)NC(=O)[C@@H](N)Cc1ccccc1)C(C)C)[C@@H](C)CC)[C@@H](C)CC)[C@@H](C)CC)C(=O)N[C@@H](CC(C)C)C(=O)N[C@@H](CCCCN)C(=O)N[C@@H](CO)C(=O)NCC(=O)O [FHPSLWVLIPQYIQLIRKILKSG]

- MIC (Escherichia coli W160-37): ≥ 265 µM
Structure (SMILES): CC[C@H](C)[C@H](NC(=O)[C@H](CCCCN)NC(=O)[C@H](CCCN=C(N)N)NC(=O)[C@@H]1CCCN1C(=O)[C@@H](NC(=O)[C@H](CC(C)C)NC(=O)[C@H](CCCCN)NC(=O)[C@H](CC(C)C)NC(=O)[C@@H](N)Cc1ccccc1)[C@@H](C)CC)C(=O)N[C@H](C(=O)N[C@H](C(=O)N[C@@H](C)C(=O)N[C@@H](CC(C)C)C(N)=O)[C@@H](C)O)C(C)C [FLKLIPRKIVTAL]

- MIC (Listeria innocua): 19.3 µM (≈ 50 µg/mL)
- MIC (Staphylococcus aureus): 4.63 µM (≈ 12 µg/mL)
- MIC (Leuconostoc lactis): 4.63 µM (≈ 12 µg/mL)
- MIC (Bacillus cereus): ≥ 38.5 µM
- MIC [4]: 9.64 µM (≈ 25 µg/mL)
- MIC (Streptococcus uberis): 19.3 µM (≈ 50 µg/mL)
- MIC (Escherichia coli): > 38.5 µM
- MIC (Micrococcus luteus): 19.3 µM (≈ 50 µg/mL)
- MIC (Pasteurella multocida): 19.3 µM (≈ 50 µg/mL)
- MIC [5]: ≥ 35.4 µM
Structure (SMILES): CC[C@H](C)[C@H](NC(=O)[C@H](CO)NC(=O)CNC(=O)[C@H](CC(C)C)NC(=O)[C@@H](NC(=O)CNC(=O)[C@H](Cc1ccccc1)NC(=O)[C@H](CC(C)C)NC(=O)CN)C(C)C)C(=O)N[C@@H](C)C(=O)N[C@@H](CCCCN)C(=O)N[C@@H](Cc1cnc[nH]1)C(=O)N[C@H](C(=O)N[C@@H](CC(C)C)C(=O)N1CCC[C@H]1C(=O)N[C@@H](Cc1cnc[nH]1)C(=O)N[C@H](C(=O)N[C@H](C(=O)N1CCC[C@H]1C(=O)N[C@H](C(=O)N[C@H](C(=O)N[C@@H](C)C(=O)N[C@@H](CCC(=O)O)C(=O)N[C@@H](CCCCN)C(=O)N[C@@H](CC(C)C)C(N)=O)[C@@H](C)CC)C(C)C)C(C)C)C(C)C)C(C)C [GLFGVLGSIAKHVLPHVVPVIAEKL]

- MIC [8]: 100 µM (≈ 259 µg/mL)
- MIC [1]: 12.5 µM (≈ 32.4 µg/mL)
- MIC [12]: 50 µM (≈ 130 µg/mL)
- MIC [3]: ≥ 50 µM
- MIC [9]: 25 µM (≈ 64.8 µg/mL)
- MIC [13]: 50 µM (≈ 130 µg/mL)
Structure (SMILES): CC[C@H](C)[C@H](NC(=O)[C@H](CC(=O)O)NC(=O)[C@H](CCCCN)NC(=O)[C@H](C)NC(=O)[C@H](CC(C)C)NC(=O)CNC(=O)[C@H](CCCCN)NC(=O)[C@H](CC(C)C)NC(=O)[C@@H](NC(=O)[C@H](CC(=O)O)NC(=O)[C@@H](NC(=O)[C@@H](NC(=O)CN)C(C)C)C(C)C)[C@@H](C)CC)C(=O)N[C@@H](C)C(=O)NCC(=O)N[C@@H](Cc1cnc[nH]1)C(=O)N[C@@H](CC(C)C)C(=O)N[C@@H](C)C(=O)N[C@@H](CO)C(=O)N[C@@H](CCCCN)C(=O)N[C@H](C(=O)N[C@@H](CCSC)C(=O)N[C@@H](CC(N)=O)C(=O)N[C@@H](CCCCN)C(=O)N[C@@H](CC(C)C)C(N)=O)C(C)C [GVVDILKGLAKDIAGHLASKVMNKL]

- MIC [14]: 2.84 µM (≈ 4 µg/mL)
- MIC [8]: 5.67 µM (≈ 7.99 µg/mL)
- MIC [1]: 2.84 µM (≈ 4 µg/mL)
- MIC [15]: 2.84 µM (≈ 4 µg/mL)
- MIC [16]: 2.84 µM (≈ 4 µg/mL)
- MIC [17]: 1.42 µM (≈ 2 µg/mL)
- MIC [18]: 2.84 µM (≈ 4 µg/mL)
- MIC [19]: 11.3 µM (≈ 16 µg/mL)
- MIC [20]: 2.84 µM (≈ 4 µg/mL)
- MIC [21]: 2.84 µM (≈ 4 µg/mL)
Structure (SMILES): CC(C)C[C@H](NC(=O)[C@H](Cc1c[nH]c2ccccc12)NC(=O)[C@H](CCCCN)NC(=O)[C@H](CC(C)C)NC(=O)[C@H](CC(C)C)NC(=O)[C@H](CCCCN)NC(=O)[C@H](CCCCN)NC(=O)[C@H](CC(C)C)NC(=O)[C@@H](N)CC(C)C)C(=O)N[C@@H](CCCCN)C(=O)N[C@@H](CCCCN)C(N)=O [LLKKLLKWLKK]

Reference: DBAASP
